Test results reported in PMC6031733, “Adding a C-terminal Cysteine (CTC) Can Enhance the Bactericidal Activity of Three Different Antimicrobial Peptides” (Frontiers in Microbiology, 2018).
Like-named read-outs stand apart in the source and are kept apart here. Positions of bridges follow the written chain, without caps; N, C: chain ends. Non-standard residues stand in square brackets, D forms with d. Residues, ends and D or L forms follow the SMILES beside them. No end group written: not given here. *: point of attachment. X1 = CC[C@H](C)CCCCC(=O)*; Dab = NCC[C@H](N)C(=O)O

What was measured:
[1] = tested on: A. baumannii ATCC17978; details: A. baumannii ATCC17978 strain
Method: (§1) Peptides were diluted in the same buffer. […] All peptides were tested in triplicate. […] Peptides were also diluted in MH broth. […] All peptides were tested in duplicate.

[2] = tested on: colistin-resistant A. baumannii TCGH 46709; assay: Mouse lung infection model, survival; type: in vivo; details: C57BL/6JNarl mice, i.t. A. baumannii TCGH 46709 3.5 × 10^8 CFU/mouse, three consecutive days, 16 mice/group, 3 days
Method: (§2) We determined the in vivo protection efficacy of peptides in two different mouse infection models. In the mouse sepsis model ([Chen et al., 2016]), 3-week-old male ICR mice (∼20 g) were purchased from BioLASCO (Taiwan). These mice were inoculated intraperitoneally with S. aureus ATCC 19636 (4 × 10^6 CFU/mouse). At 2 h post-inoculation, the mice were randomly separated into 5 groups and received peptides (5 or 10 mg/kg) or the PBS control, respectively. Each group contained 5 mice. Mortality was monitored daily for 7 days following the bacterial inoculation. This experiment was repeated twice. In the mouse lung infection model ([Yang et al., 2016]), 6–8-week-old male C57BL/6JNarl mice (∼27 g) were purchased from National Laboratory Animal Center, Taiwan. The inoculums (3.5 × 10^8 CFU/mouse) were prepared by 1:1 mixing of LB culture and 10% mucin (Sigma). All mice were randomly separated into 3 groups and anesthetized by Isoflurane via inhalation, and inoculated intra-tracheally with colistin-resistant A. baumannii TCGH 46709. Two hours after inoculation, the mice were intraperitoneally injected daily with either colistin (5 mg/kg) ([Fishbain and Peleg, 2010]) or HBcARD derivative peptides (5 or 10 mg/kg), respectively, for three consecutive days. Each group contained 8 mice. Mortality was monitored every 12 h following the bacterial inoculation. This experiment was repeated twice.
C57BL/6JNarl mice (∼27 g) were anesthetized and intra-tracheally inoculated with A. baumannii (3.5 × 10^8 CFU/mouse). At 2 h post-inoculation, the mice received i.p. injection of either D-150-177C or colistin, respectively, for three consecutive days (1 injection per day).

[3] = tested on: S. aureus ATCC19636; type: cell-based, Staphylococcus aureus; details: for MBC: pH 7.2
Method: as §1

[4] = tested on: P. aeruginosa ATCC9027; type: cell-based, Pseudomonas aeruginosa
Method: as §1

[5] = tested on: A. baumannii ATCC17978; type: cell-based, Acinetobacter baumannii
Method: as §1

[6] = tested on: K. pneumoniae ATCC13884; type: cell-based, Klebsiella pneumoniae
Method: as §1

[7] = tested on: S. aureus ATCC25923; assay: Minimum bactericidal concentration (MBC); type: cell-based, Staphylococcus aureus; details: phosphate buffer pH 7.2, 37°C, 3 h, zero colony, triplicate
Method: as §1

[8] = tested on: S. aureus ATCC29213; assay: Minimum bactericidal concentration (MBC); type: cell-based, Staphylococcus aureus; details: phosphate buffer pH 7.2, 37°C, 3 h, zero colony, triplicate
Method: as §1

[9] = tested on: P. aeruginosa ATCC27853; assay: Minimum bactericidal concentration (MBC); type: cell-based, Pseudomonas aeruginosa; details: phosphate buffer pH 7.2, 37°C, 3 h, zero colony, triplicate
Method: as §1

[10] = tested on: E. coli ATCC25922; assay: Minimum bactericidal concentration (MBC); type: cell-based, Escherichia coli; details: phosphate buffer pH 7.2, 37°C, 3 h, zero colony, triplicate
Method: as §1

[11] = tested on: A. baumannii ATCC19606; assay: Minimum bactericidal concentration (MBC); type: cell-based, Acinetobacter baumannii; details: phosphate buffer pH 7.2, 37°C, 3 h, zero colony, triplicate
Method: as §1

[12] = tested on: A. baumannii ATCC45530; assay: Minimum bactericidal concentration (MBC); type: cell-based, Acinetobacter baumannii; details: A. baumannii ATCC45530 (so in the source); phosphate buffer pH 7.2, 37°C, 3 h; zero colony; triplicate
Method: as §1

[13] = tested on: A. baumannii ATCC46709; assay: Minimum bactericidal concentration (MBC); type: cell-based, Acinetobacter baumannii; details: A. baumannii ATCC46709 (so in the source); phosphate buffer pH 7.2, 37°C, 3 h; zero colony; triplicate
Method: as §1

[14] = treated mice, all tissues; ref Chen et al., 2013; cited from earlier work
Text: To reduce the cost for D-amino acids in peptide synthesis, we engineered peptides DL-150-177C and LD-150-177C, which contain only approximately 50 ...

[15] = tested on: ICR mice; assay: In vivo acute toxicity, survival
Method: (§3) To measure in vivo the acute toxicity, 3-week-old male ICR mice (∼20 g) were purchased from BioLASCO (Taiwan). The mice were randomly separated into 6 groups, and were intraperitoneally injected with D-150-177C at concentrations of 20, 40, 60, and 80 mg/kg. A last-line antibiotic, polymyxin B (20 and 50 mg/kg), was used as a control. Each group contained 5 mice. At 1 day post-injection, blood sample was collected from each mouse. The liver function of mice was determined by measuring the ALT level in the blood. The survival rates of injected mice were monitored for 7 days.
(§4) Polymyxins are the last-line antibiotics, but could be toxic at higher dose. We compared the acute toxicity of peptide D-150-177C with polymyxin B using ICR mice. The mice (∼20 g) were i.p. injected with D-150-177C peptide (20–80 mg/kg body weight). Polymyxin B (50 mg/kg body weight) was used as a control antibiotic. […] In contrast, all mice died of polymyxin B at 50 mg/kg.

[16] = tested on: S. aureus ATCC 19636; assay: Mouse sepsis model, survival; type: in vivo; details: ICR mice
Method: as §2
The mice (∼20 g) were i.p. (intraperitoneally) inoculated with S. aureus ATCC19636 (4 × 10^6 CFU/mouse), followed by treatments with peptides or the PBS control at 2 h post-inoculation. We monitored the survival rate for 7 days (Figure 2B). All mice treated with PBS (10/10) died at day 1 post-inoculation. […] In contrast, administration of L-150-177C peptide at the same dose protected 70% of mice (7/10) from death (p < 0.05). It appears that the C-terminal cysteine is very critical for the in vivo protection as well. Next, we compared the in vivo protection efficacy of HBcARD 150-177C peptides containing either D-form or L-form arginines in this same model. The protection efficacy of peptide L-150-177C was 30% (3/10) at 5 mg/kg, whereas D-150-177C can protect all mice (10/10) from death at the same dose (Figure 2B).

[17] = tested on: colistin-sensitive A. baumannii ATCC17978; assay: Mouse lung infection model, survival; type: in vivo; details: C57BL/6JNarl mice, i.t. colistin-sensitive A. baumannii ATCC17978; i.p. daily for three days; data not shown
[18] = tested on: ICR mice; assay: In vivo acute toxicity, serum ALT (liver injury)
Method: as §3, §4

[19] = S. aureus ATCC19636, 10^6 CFU/ml in 10 mM sodium phosphate, 50 mM NaCl, 37°C, 3 h, plated on MH agar, zero colony, triplicate
[20] = P. aeruginosa ATCC9027, phosphate buffer pH 7.2, 37°C, 3 h, zero colony, triplicate
[21] = A. baumannii ATCC17978, phosphate buffer pH 7.2, 37°C, 3 h, zero colony, triplicate
[22] = S. aureus ATCC19636 4 × 10^6 CFU/mouse i.p., peptide 5 mg/kg at 2 h post-inoculation, 7 days, n = 10/group (Figure 2B)

CC[C@H](C)CCCCC(=O)N[C@@H](CCN)C(=O)N[C@H](C(=O)N[C@@H](CCN)C(=O)N[C@H]1CCNC(=O)[C@H]([C@@H](C)O)NC(=O)[C@H](CCN)NC(=O)[C@H](CCN)NC(=O)[C@H](CC(C)C)NC(=O)[C@@H](CC(C)C)NC(=O)[C@H](CCN)NC1=O)[C@@H](C)O [colistin, reference compound] (X1-[Dab]T[Dab][Dab][Dab][dL]L[Dab][Dab]T; lactam 4-C (inferred); N-terminus assumed)
MIC [1]: around 4 mg/L | survival rate (mice protected from death) ([2]; 5 mg/kg/day i.p. from 2 h): 12.5%

NAKDYKGAAAEFPKWNKAGGRVLAGLVKRRKC [LysinC]
MBC ([3]; ATCC19636, 3 h): 128 µg/mL | decrease in MBC relative to parental peptide without C-terminal cysteine ([3]; S. aureus): > 8 fold | MBC ([4]; ATCC9027, 3 h, pH 7.2): 16 µg/mL | decrease in MBC relative to parental peptide without C-terminal cysteine ([4]; P. aeruginosa): 4 fold | decrease in MBC relative to parental peptide without C-terminal cysteine ([5]; A. baumannii): 32 fold | MBC ([5]; ATCC17978, 3 h, pH 7.2): 32 µg/mL | MBC ([6]; ATCC13884, 3 h, pH 7.2): 128 µg/mL | decrease in MBC relative to parental peptide without C-terminal cysteine ([6]; K. pneumonia): > 8 fold

TVVRRRGRSPRRRTPSPRRRRSQSPRRRRSQSRESQC [147-183]
MBC [3, 19]: 18.3 µg/mL | MBC [7]: 18.3 µg/mL | MBC [8]: 18.3 µg/mL | MBC [4, 20]: 9.2 µg/mL | MBC [9]: 9.2 µg/mL | MBC [10]: 18.3 µg/mL | MBC [5, 21]: 2.3 µg/mL | MBC [11]: 2.3 µg/mL | MBC [12]: 2.3 µg/mL | MBC [13]: 4.6 µg/mL | reduction of bacterial burdens in spleen, liver, and blood [14]: approximately 100 fold

RRRTPSPRRRRSQSPRRRRSC [157-177C]
MBC [3, 19]: > 57.2 µg/mL

RRRRSQSPRRRRSC [164-177C]
MBC [3, 19]: > 57.2 µg/mL

RRRGRSPRRRTPSPRRRRSC [150-171C]
MBC [3, 19]: > 57.2 µg/mL

polymyxin B [reference compound]
survival ([15]; single i.p. 50 mg/kg, 7 days, 5 mice/group): all mice died

RRRGRSPRRRTPSPRRRRSQSPRRRRSC [150-177C]
MBC [3, 19]: 7.1 µg/mL | MBC [7]: 7.1 µg/mL | MBC [8]: 7.1 µg/mL | MBC [4, 20]: 7.1 µg/mL | MBC [9]: 7.1 µg/mL | MBC [10]: 7.1 µg/mL | MBC [5, 21]: 1.8 µg/mL | MBC [11]: 0.9 µg/mL | MBC [12]: 1.8 µg/mL | MBC [13]: 3.6 µg/mL | survival rate [16, 22]: 30% | survival rate ([16]; S. aureus ATCC19636 4 × 10^6 CFU/mouse i.p., peptide 10 mg/kg at 2 h post-inoculation, 7 days, n = 10/group (Figure 2B)): 70%

C[C@@H](O)[C@H](NC(=O)[C@@H](CCCNC(=N)N)NC(=O)[C@@H](CCCNC(=N)N)NC(=O)[C@@H](CCCNC(=N)N)NC(=O)[C@@H]1CCCN1C(=O)[C@H](CO)NC(=O)[C@@H](CCCNC(=N)N)NC(=O)CNC(=O)[C@@H](CCCNC(=N)N)NC(=O)[C@@H](CCCNC(=N)N)NC(=O)[C@H](N)CCCNC(=N)N)C(=O)N1CCC[C@H]1C(=O)N[C@@H](CO)C(=O)N1CCC[C@H]1C(=O)N[C@H](CCCNC(=N)N)C(=O)N[C@H](CCCNC(=N)N)C(=O)N[C@H](CCCNC(=N)N)C(=O)N[C@H](CCCNC(=N)N)C(=O)N[C@@H](CO)C(=O)N[C@@H](CCC(N)=O)C(=O)N[C@@H](CO)C(=O)N1CCC[C@H]1C(=O)N[C@H](CCCNC(=N)N)C(=O)N[C@H](CCCNC(=N)N)C(=O)N[C@H](CCCNC(=N)N)C(=O)N[C@H](CCCNC(=N)N)C(=O)N[C@@H](CO)C(=O)N[C@@H](CS)C(=O)O [D-150-177C] (H-[dR][dR][dR]G[dR]SP[dR][dR][dR]TPSP[dR][dR][dR][dR]SQSP[dR][dR][dR][dR]SC-OH; N-terminus and C-terminus assumed)
survival rate [16, 22]: 100% | survival rate ([16]; S. aureus sepsis, peptide 5 mg/kg at 2 h post-inoculation, n = 10/group, D-arginine substitution comparison (Figure 4)): protected all mice from death | survival rate (mice protected from death) ([2]; 5 mg/kg/day i.p. from 2 h): 62.5% | survival rate (mice protected from death) ([2]; 10 mg/kg/day i.p. from 2 h): 87.5% | survival rate [17]: comparable to that of colistin treatment | LD50 ([15]; i.p., estimated from survival at 20-80 mg/kg): ~75 mg/kg | survival rate ([15]; single i.p. 20 mg/kg, 7 days, 5 mice/group): 100% | survival rate ([15]; single i.p. 40 mg/kg, 7 days, 5 mice/group): 100% | survival rate ([15]; single i.p. 60 mg/kg, 7 days, 5 mice/group): 80% | survival rate ([15]; single i.p. 80 mg/kg, 7 days, 5 mice/group): 40% | ALT level compared with polymyxin B at 20 mg/kg ([18]; i.p. 20 mg/kg, serum at day 1): slight increase | ALT level compared with polymyxin B at 20 mg/kg ([18]; i.p. 40 mg/kg, serum at day 1): slight increase | ALT level compared with polymyxin B at 20 mg/kg ([18]; i.p. 60 mg/kg, serum at day 1, P < 0.01): significantly higher | average ALT value ([18]; i.p. 60 mg/kg, serum at day 1 post-injection): less than 100 IU/L
